Results published in patent US11357786B2, “Synthetic disugar hydrocarbons as natural analogs to control microbial behaviors” (Syracuse University, priority 2014, dated 2022).
“Also recorded” adds a separate entry of the source. Where two headings read alike, the source gives them in different places.

Tests used:
[1] = test system: nonswarming P. aeruginosa mutant rhlA; experiment: Swarming motility of nonswarming rhlA mutant on soft agar (reactivation / agonist assay); assay type: cell-based, Pseudomonas aeruginosa; conditions: for Swarming motility of rhlA mutant: 85 μM in soft agar (0.5%), 24 h
In short: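 rhlA transposon mutant of PAO1 (3 μl, OD600 0.4–0.6) inoculated on M8 soft agar (0.2% glucose, 0.5% casamino acids, 1 mM MgSO4, 0.5% agar) with test compound to find swarming agonists. Incubated 12 h at 37 °C plus 12 h at room temperature; swarm area measured by weighing paper cut-outs of imaged swarms.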

PAO1 biofilm [2] = experiment: Crystal violet dye based biofilm inhibition assay, maltose derivatives (Example 1); assay type: cell-based, Pseudomonas aeruginosa; conditions: for IC50: CV dye based assay; for Inhibition of PAO1 biofilm: 110 μM, 24 h, CV assay
Description: (§1) A crystal violet (CV) assay was used to measure the amount of PAO1 biofilm formed after 24 h of bacterial inoculation. The fluorescence of green fluorescent proteins (GFP) expressed by PAO1-GFP was measured to directly quantify bacterial adhesion on polystyrene black 96 well plates with and without maltose derivatives after 2 h of bacterial inoculation. To evaluate the potential of maltose derivatives as both anti-biofilm and anti-adhesion agents, they were compared to a brominated furanone (BF8) known to inhibit biofilm formation, and two generic surfactants, sodium dodecyl sulfate (SDS) and tetra (ethylene glycol) monododecyl ether (C12EG4OH). […] P. aeruginosa strain PAO1-EGFP that constitutively producing green fluorescent protein was allowed to form biofilm on sterile steel coupons.
Inhibitory effect of all the maltose hydrocarbons on P. aeruginosa biofilm formation was determined by crystal violet dye based biofilm inhibition assays. Overnight culture of wild type P. aeruginosa (PAO1) was sub cultured to an OD600 of 0.01 into the 95:5 M9+:Lb medium. 200 μL of the sub culture was aliquoted into the wells of 96 well polystyrene microtiter plate when it reached the OD600 of 0.1. Predetermined concentrations of the test compounds were then added to the respective wells containing sub culture. Sample plates were wrapped in GLAD Press n′ Seal® followed by incubation under stationary conditions for 24 h at 37° C. After incubation the media was discarded and the plates were washed with water and dried for 1 h at 37° C. The sample plates were stained with 200 μL of 0.1% aqueous solution of crystal violet (CV) and followed by incubation at ambient temperature for 20 min. The CV stain was then discarded and the plates were washed with water. The remaining biofilm adhered stain was re-solubilized with 200 μL of 30% acetic acid. After the stain was dissolved (15 minutes), 100 μL of the solubilized CV was transferred from each well into the corresponding wells of a new polystyrene microtiter dish. Biofilm inhibition was quantified by measuring the OD600 of each well in which a negative control lane wherein no biofilm was formed served as a background and was subtracted out. The percent inhibition was calculated by the comparison of the OD600 for biofilm grown in the absence of compound (control) versus biofilm grown in the presence of compound under identical conditions.
(§2) Predetermined amounts maltose derivatives stock solution was added to the 200 μL bacterial culture in 96 well plate so that the final concentration of the agent reaches the desired values of 1, 5, 10, 20, 40, 85, 113, 140 μM. Biofilm inhibition and dispersion assay was carried as described previously.

24 h old PAO1 biofilm = experiment: Crystal violet biofilm dispersion assay, maltose derivatives (Example 1); assay type: cell-based, Pseudomonas aeruginosa; conditions: for DC50: 24 h old biofilm, read-out: Biofilm dispersion DC50 (half-maximal dispersion)
Description: Chemical dispersion of already formed biofilm is often more relevant to medical application, and more challenging than biofilm inhibition assays, for which the agents are introduced at the onset of an experiment. We screened the ability of maltose derivatives at 110 μM to disperse 24 h old biofilm.
PAO1 was allowed to grow for 24 h at 37° C. After 24 h, bacterial culture was pipetted out and replaced with 200 μL of 110 μM maltose hydrocarbons and sterile water (control). After 1 h treatment with maltose hydrocarbons, biofilm was fixed and quantified using crystal violet dye as described above. The amount of dispersed biofilm was determined via comparison of the amount of biofilm at 24 h in the presence of maltose hydrocarbons versus the amount of biofilm in the “no compound” positive control at 24 h (wells with water treatment).
as §2

wild type PAO1 = experiment: Swarming motility of wild type PAO1 on soft agar (antagonist assay); assay type: cell-based, Pseudomonas aeruginosa
In short: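 Wild-type PAO1 culture (OD600 ~0.4–0.6, 3 μl) spotted on M8 swarm agar with 0.2% glucose, 0.5% casamino acids, 1 mM MgSO4 and 0.5% agar. Plates incubated 12 h at 37 °C then 12 h at room temperature; swarm area measured by cutting and weighing printed plate images.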

PAO1 biofilm [3] = experiment: Crystal violet based static biofilm inhibition assay, DSHs in LB media (Examples 2 and 4); assay type: cell-based, Pseudomonas aeruginosa
In short: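 PAO1 subculture (OD600 ~0.1) was grown statically in LB at 37° C for 24 h with or without DSHs (screened at 160 μM). Surface-attached biofilm was then stained with 0.1% crystal violet, solubilised in 30% AcOH and read at 600 nm. Values are the mean of 4 wells.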

PAO1-EGFP = experiment: Fluorescence adhesion assay on polystyrene, DSHs (Examples 2 and 4); assay type: cell-based, Pseudomonas aeruginosa; conditions: 160 μM
Description: The ability of DSHs was tested to inhibit Pseudomonas aeruginosa adhesion, biofilm and to disperse pre-formed biofilm. To quantify the amount of PAO1/EGFP attached on the surface of micro titer plates with or without the synthesized DSHs, fluorescence emitted by green fluorescent proteins (GFP) was quantified (see supporting info for details). Crystal violet (CV) based static biofilm assay (see supporting info) was used to screen the anti-biofilm potencies of all synthesized agents. Both surface attached (SA) (FIG. 17) and total (SA+air-liquid interface) biofilm of P. aeruginosa was quantified. […] CV assays were also used to quantify the amount of P. aeruginosa biofilm remaining after dispersion experiments (FIG. 19). Initially, all agents were screen for anti-biofilm activities (both inhibition and dispersion) at 160 μM. […]
The effect that DSHs have on the adhesion of PAO1-EGFP on polystyrene surface (microtiter plate) was also examined. […] After 24-hours, the fluorescent signal obtained from surface adhered PAO1-EGFP was measured. Percent reduction in fluorescence was calculated by comparing fluorescent signal from PAO1-EGFP grown in LB-media with the signal from wells that had DSHs (FIG. 29A). […] After 24 hours, the surface attached biofilms adhering to the bottom of the wells were stained with crystal-violet dye and the biofilm was quantified by measuring absorbance at 600 nm (OD600). […]

PAO1-GFP = experiment: microbe, parasite or virus in culture; assay type: cell-based, Pseudomonas aeruginosa
Description: as §1
Overnight culture of PAO1-GFP was subcultured to an OD600 of 0.01 into the 95:5 M9+:Lb medium. Subculture was allowed to reach the OD600 of 0.1 in a rotary shaker at 250 rpm and 37° C. 200 μL of the subculture was then transferred to the wells of black microtiter plate with and without (control) maltose derivatives. This black 96 well plate was then incubated in a shaker at 37° C. for 2 h. After 2 h, bacterial culture from the plate was discarded and each well was washed once with saline water (0.85 w/v % aqueous NaCl solution). Fresh 95:5 M9+:Lb medium was added to the black 96 well plate and fluorescence of the surface adhered bacteria was measured by Synergy 2 multi-mode microplate reader with Gen5 data analysis software at an excitation wavelength of 500 nm and an emission wavelength of 540 nm. Background signal from 95:5 M9+:Lb medium was eliminated from all the samples.

[4] = test system: Pseudomonas aeruginosa strain PAO1-BAA-47; experiment: Mouse P. aeruginosa pneumonia model; assay type: in vivo; conditions: SP-A/D KO mice

Description for Solubility in water: Stock solution of disaccharide hydrocarbons (DSHs). Stock solution (˜11.5 mM) of all synthesized and commercially available DSHs were prepared in autoclaved water and further sterilized by filtering through cellulose acetate syringe filter (0.2 μm pore size, GVS filter technology) into sterilized vials. The vials containing sterilized DSHs stocks were capped and stored at −20° C. and thawed prior to each use. Appropriate volume of sterile water was added to positive controls (no agents) in all assays to eliminate the effect of water. Stock solution of DβL (7), SFβL (15) and 2-ODαC (17) were prepared in sterile water and 200 proof EtOH in 90:10 ratio. For positive controls involving DβL (7), SFβL (15) and 2-ODαC (17) appropriate volumes of 90:10, H2O:EtOH was added.

With O=C(c1ccccc1)c1ccc(COCCCCCCCCCCO[C@@H]2O[C@H](CO)[C@@H](O[C@H]3O[C@H](CO)[C@@H](O)[C@H](O)[C@H]3O)[C@H](O)[C@H]2O)cc1 [BPDeβM, benzophenonyl decyl β-maltoside] the “Swarming motility of rhlA mutant” value [1] was “swarming motility with without well-defined tendrils”, the IC50 (PAO1 biofilm [2]) was 22.5 µM and the DC50 (24 h old PAO1 biofilm) was 31 µM.

With CCCCCCCCCCCCO[C@@H]1O[C@@H](C)[C@H](O)[C@@H](O)[C@H]1O [DαR (9), dodecyl-α-rhamnoside] the “Swarming motility of rhlA mutant” value [1] was “no apparent effect on rhlA”, the “Swarming motility of wild type PAO1” value (wild type PAO1; 85 μM in soft agar, 24 h) was “inhibited the swarming motility of wild type PAO1” and the “Effect on PAO1 swarming” value (wild type PAO1; concentration not given) was “PAO1 swarming inhibitors”. For the same compound, the “Inhibition of PAO1 biofilm formation (surface attached)” value (PAO1 biofilm [3]; 160 μM, 24 h, LB media, listed as 8: DαR, 160 µM) was “poor anti-biofilm activity”, the “Anti-biofilm activity (biofilm inhibition)” value (PAO1 biofilm [3]; concentration not given) was “weak anti-biofilm activity” and the “Adhesion inhibition of PAO1-EGFP on polystyrene” value (PAO1-EGFP) was 63%.

With CC(C)CCCC(C)CCCC(C)CCO[C@@H]1O[C@H](CO)[C@@H](O[C@@H]2O[C@H](CO)[C@H](O)[C@H](O)[C@H]2O)[C@H](O)[C@H]1O (stereo partly drawn) [SFβL (15), saturated famesyl-β-lactoside] the Solubility in water (Solubility in water) was “poor water-solubility” and the Solubility in water (Solubility in water; listed as 15: SFβL) was “poor solubility in water; also recorded: not soluble in either water or in water/EtOH mixture”.

For 12-hydroxy decyl β-maltose [12-HODeβM], the “Swarming motility of rhlA mutant” value [1] was “did not exhibit any significant activation of swarming”, the “Inhibition of PAO1 biofilm” value (PAO1 biofilm [2]) was “about 30%” and the “Inhibition of PAO1 biofilm” value (PAO1 biofilm [2]; listed as HODeβM) was 32%. The “Inhibition of PAO1-EGFP adhesion on polystyrene” value (PAO1-GFP; 85 μM, 2 h) was “about 7%”.

With benzyl dodecyl β-maltoside [BDβM] the “Swarming motility of rhlA mutant” value [1] was “swarming motility with without well-defined tendrils”, the IC50 (PAO1 biofilm [2]) was 27.5 µM and the DC50 (24 h old PAO1 biofilm) was 32 µM.

With CCCCCCCCCCCCO[C@@H]1O[C@H](CO)[C@@H](O[C@H]2O[C@H](CO)[C@@H](O)[C@H](O)[C@H]2O)[C@H](O)[C@H]1O [DM, Dodecyl Maltoside] the “CFU number in the lung” value ([4]; 50 μl of 170 μM intratracheal 24 h after infection, sacrifice 24 h later) was “significantly decreased CFU number in the lung” and the “Lung inflammation (histology, H&E)” value ([4]; 50 μl of 170 μM intratracheal) was “improved the lung inflammation”.

With CCCCCCCCCCCC[N+](C)(C)C.[Cl-] [DTAC, dodecyl trimethyl ammonium chloride, reference compound] the “Reactivation of swarming motility of rhlA mutant” value ([1]; concentration not given) was “did not promote or reactivate”, the “Anti-biofilm activity (inhibition)” value (PAO1 biofilm [2]; concentration not given) was “did not show any anti-biofilm activities” and the “Anti-biofilm activity (dispersion)” value (24 h old PAO1 biofilm; concentration not given) was “did not show any anti-biofilm activities”.

For CC1=C(Br)/C(=C/Br)OC1=O [BF8], the “Inhibition of PAO1 biofilm” value (PAO1 biofilm [2]) was “about 35%” and the “Inhibition of PAO1 adhesion on polystyrene” value (PAO1-GFP; 100 μM) was “showed no inhibition; also recorded: does not inhibit the adhesion”.
